Results on six compounds are retold here after patent US9194863B2, “Treatment of pain” (priority 2011, dated 2015).

The subject of experiment [1] is mice. Nature of the experiment: Nocifensive behavior after injection into the plantar skin of the hind paw. It is filed as in vivo, mouse. The method, then: (§1) Hind paw injections, drinking tests, thermal gradient tests, temperature choice tests, hot plate, cold plate, tail clip and tail immersion assays were performed as previously described (Cao et al., 1998; Caterina et al., 2000; Karashima et al., 2009; Mocrich et al., 2005). To evoke inflammatory hyperalgesia, Complete Freund's Adjuvant (CFA, Sigma) (50 μl) was injected intraplantarly in both hindpaws 24 h before behavioral testing. Corn oil was used as vehicle control. To obtain pharmacological inhibition of TRPV1, AMG 9810 (Tocris Bioscience) dissolved in DMSO was injected i.p at 3 mg/kg during consecutive 7 days (Gavva et al., 2007; Gavva et al., 2005). DMSO was used as vehicle control. All animal experiments were carried out in accordance with the European Union Community Council guidelines and were approved by the local ethics committee.

The target of experiment [2] is T1, TRPM3 (Mus musculus, UniProt J9SQF3). As to conditions: cited from earlier work.
T1 sequence (J9SQF3 1-1709 isoform J9SQF3-12): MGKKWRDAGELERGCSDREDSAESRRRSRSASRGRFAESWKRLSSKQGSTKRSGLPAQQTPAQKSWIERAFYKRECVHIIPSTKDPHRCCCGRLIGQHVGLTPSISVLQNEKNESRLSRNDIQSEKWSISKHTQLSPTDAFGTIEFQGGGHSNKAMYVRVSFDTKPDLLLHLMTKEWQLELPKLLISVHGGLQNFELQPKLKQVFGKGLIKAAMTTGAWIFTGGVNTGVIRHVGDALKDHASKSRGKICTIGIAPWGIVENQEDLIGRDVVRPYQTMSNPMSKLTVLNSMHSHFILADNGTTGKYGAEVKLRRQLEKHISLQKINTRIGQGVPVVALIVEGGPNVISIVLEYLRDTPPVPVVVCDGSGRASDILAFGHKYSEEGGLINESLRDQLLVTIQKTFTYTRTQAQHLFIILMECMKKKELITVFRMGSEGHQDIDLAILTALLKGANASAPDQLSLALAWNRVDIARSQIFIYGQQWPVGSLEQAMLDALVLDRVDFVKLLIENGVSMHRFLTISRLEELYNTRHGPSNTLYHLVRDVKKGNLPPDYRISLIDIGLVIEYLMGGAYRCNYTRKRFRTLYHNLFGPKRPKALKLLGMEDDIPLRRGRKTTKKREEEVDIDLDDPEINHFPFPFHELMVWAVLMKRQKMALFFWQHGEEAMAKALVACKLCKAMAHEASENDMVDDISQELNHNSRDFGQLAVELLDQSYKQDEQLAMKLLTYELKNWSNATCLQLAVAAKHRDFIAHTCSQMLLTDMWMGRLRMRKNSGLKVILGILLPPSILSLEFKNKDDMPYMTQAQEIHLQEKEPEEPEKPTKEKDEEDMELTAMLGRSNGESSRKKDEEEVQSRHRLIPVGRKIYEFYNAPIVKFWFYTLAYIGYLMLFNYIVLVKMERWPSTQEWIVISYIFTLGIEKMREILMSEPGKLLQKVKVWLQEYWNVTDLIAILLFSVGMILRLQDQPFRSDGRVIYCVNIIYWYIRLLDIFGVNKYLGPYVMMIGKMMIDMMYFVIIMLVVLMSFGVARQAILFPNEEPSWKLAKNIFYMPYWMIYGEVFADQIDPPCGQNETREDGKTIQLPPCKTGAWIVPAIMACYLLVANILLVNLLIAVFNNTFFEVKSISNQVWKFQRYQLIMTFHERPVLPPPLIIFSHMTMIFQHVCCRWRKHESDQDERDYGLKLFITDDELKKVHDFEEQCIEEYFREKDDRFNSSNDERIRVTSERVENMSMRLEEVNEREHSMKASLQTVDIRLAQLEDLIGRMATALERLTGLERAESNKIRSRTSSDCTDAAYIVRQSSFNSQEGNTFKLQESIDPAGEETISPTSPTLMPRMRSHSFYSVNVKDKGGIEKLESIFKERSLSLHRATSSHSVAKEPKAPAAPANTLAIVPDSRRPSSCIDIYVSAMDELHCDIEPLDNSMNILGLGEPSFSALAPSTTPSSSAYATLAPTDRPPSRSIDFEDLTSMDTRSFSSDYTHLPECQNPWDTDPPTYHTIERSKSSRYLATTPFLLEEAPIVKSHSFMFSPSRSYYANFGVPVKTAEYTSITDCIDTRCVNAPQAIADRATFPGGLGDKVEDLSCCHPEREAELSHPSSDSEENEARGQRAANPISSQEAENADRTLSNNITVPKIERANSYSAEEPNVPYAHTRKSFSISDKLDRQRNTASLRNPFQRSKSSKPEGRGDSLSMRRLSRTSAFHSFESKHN
Experiment [3] deals with TG neurons. The experiment can be described thus: Fura-2 intracellular Ca2+ imaging in isolated TG neurons. Type of experiment: cell-based, mouse. The note with it: for fraction of sensitive TG neurons in Trpm3−/− preparations versus Trpm3+/+: Trpm3−/− mice. As for the experimental part:
(§2) Human embryonic kidney cells, HEK293T, were grown in Dulbecco's modified Eagle's medium (DMEM) containing 10% (v/v) human serum, 2 mM L-glutamine, 2 units/ml penicillin, and 2 mg/ml streptomycin at 37° C. in a humidity-controlled incubator with 10% CO2. HEK293T cells were transiently transfected with murine TRPM3α2 (accession number AJ 544535) in the bicistronic pCAGGS/IRES-GFP vector, using Mirus TransIT-293 (Mirus corporation; Madison USA). Transfected cells were visualized by green fluorescence protein (GFP) expression whereas GFP negative cells from the same batch were used as controls. TG and DRG neurons from adult (postnatal weeks 8-12) male mice were isolated as described previously (Karashima et al., 2007). HEK293T cells stably transfected with TRPM3α2 were developed using the Flp-In System (Invitrogen).
(§3) Fura-2-based ratiometric intracellular Ca^2+ measurements were performed as described previously (Vriens et al., 2007). The following procedure was used to distinguish stimulus-induced responses from background variations in fluorescence. First, we calculated the time derivative of the fluorescence ratio (dRatio/dt), and the standard deviation (SD) of dRatio/dt in the absence of any stimulus. A positive response was noted when a stimulus caused an increase of dRatio/dt exceeding 5×SD. […] For every condition, a minimum of 100 cells derived from at least three separated isolations and in at least twelve independent measurements were analyzed.

Experiment [4] has as its system DRG neurons. The experiment can be described thus: Fura-2 intracellular Ca2+ imaging in isolated DRG neurons. Type of experiment: cell-based, mouse. The note with it: for fraction of sensitive DRG neurons in Trpm3−/− preparations versus Trpm3+/+: Trpm3−/− mice. The method, then: as §2, §3
Experiment [5] deals with TG neurons. The experiment can be described thus: Whole-cell patch-clamp on TG neurons. Type of experiment: cell-based, mouse. As for the experimental part:
(§4) Whole-cell membrane currents were measured with an EPC-10 (HEKA Elektronik, Lambrecht, Germany). The sampling rate was 20 kHz and currents were digitally filtered at 2.9 kHz. For recordings on HEK293T cells, the extracellular solution contained (in mM): 138 NaCl, 5.4 KCl, 2 MgCl2, 2 CaCl2, 10 glucose, 10 HEPES (pH 7.2 with NaOH), and the pipette solution contained (in mM): 100 CsAsp, 45 CsCl, 10 EGTA, 10 HEPES, 1 MgCl (pH 7.2 with CsOH). For recordings on sensory neurons, the extracellular solution contained (in mM): 140 NaCl, 4 KCl, 2 MgCl2, 100 nM TTX, 10 TRIS (pH 7.4 with HCl), and the pipette solution contained (in mM): 140 CsCl, 0.6 MgCl2, 1 EGTA, 10 HEPES, 5 TEA (pH 7.2 with CsOH). To determine the I-V relationship of PS induced currents in neurons, all measurements were performed under monovalent free extracellular conditions in order to suppress other cationic conductances present in DRG neurons. The extracellular solution contained in mM 2 CaCl2, 2 MgCl2, 10 HEPES, 280 D-Mannitol (pH 7.2 with NMDG).

Experiment [6] deals with T2, TRPV1 (Homo sapiens, UniProt Q8NER1).
T2 construct: expressed in transfected cells; host or cells: HEK293T, transient
T2 sequence (Q8NER1 whole entry, species assumed): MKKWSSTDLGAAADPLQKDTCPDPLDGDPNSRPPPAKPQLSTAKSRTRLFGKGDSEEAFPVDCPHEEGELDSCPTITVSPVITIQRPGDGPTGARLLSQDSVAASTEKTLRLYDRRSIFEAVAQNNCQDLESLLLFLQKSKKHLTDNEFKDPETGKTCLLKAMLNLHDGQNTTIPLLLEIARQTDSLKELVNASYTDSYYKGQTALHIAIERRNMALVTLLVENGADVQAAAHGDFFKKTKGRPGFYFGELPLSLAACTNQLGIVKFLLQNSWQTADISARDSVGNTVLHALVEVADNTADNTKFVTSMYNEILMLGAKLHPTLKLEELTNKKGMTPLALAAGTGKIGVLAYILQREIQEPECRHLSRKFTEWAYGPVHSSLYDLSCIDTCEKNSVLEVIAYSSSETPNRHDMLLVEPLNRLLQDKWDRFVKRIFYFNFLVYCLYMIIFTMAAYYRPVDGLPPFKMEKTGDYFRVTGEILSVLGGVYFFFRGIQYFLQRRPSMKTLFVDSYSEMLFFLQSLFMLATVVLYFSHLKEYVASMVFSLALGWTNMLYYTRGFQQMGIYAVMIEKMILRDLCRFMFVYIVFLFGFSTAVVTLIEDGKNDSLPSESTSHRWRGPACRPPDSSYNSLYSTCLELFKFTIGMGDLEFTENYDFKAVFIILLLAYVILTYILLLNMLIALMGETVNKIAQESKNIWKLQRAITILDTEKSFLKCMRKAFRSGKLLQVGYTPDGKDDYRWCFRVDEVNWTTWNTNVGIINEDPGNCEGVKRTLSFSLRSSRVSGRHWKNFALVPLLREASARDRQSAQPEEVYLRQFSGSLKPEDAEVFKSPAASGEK
The experiment can be described thus: Intracellular Ca2+ responses in HEK293T cells transiently expressing TRPV1. Type of experiment: cell-based. As to conditions: PS 20 μM, capsaicin 2 μM. The method, then: as §3

Experiment [7] concerns the target T3, TRPM3α2 (Mus musculus, UniProt J9SQF3).
T3 construct: expressed in transfected cells; host or cells: HEK293T, transient
Nature of the experiment: Intracellular Ca2+ responses in HEK293T cells transiently expressing TRPM3. It is filed as cell-based, murine. As to conditions: PS 20 μM, capsaicin 2 μM. The method, then: as §2
(§5) Fura-2-based ratiometric intracellular Ca^2+ measurements were performed as described previously (Vriens et al., 2007). The following procedure was used to distinguish stimulus-induced responses from background variations in fluorescence. First, we calculated the time derivative of the fluorescence ratio (dRatio/dt), and the standard deviation (SD) of dRatio/dt in the absence of any stimulus. […] For every condition, a minimum of 100 cells derived from at least three separated isolations and in at least twelve independent measurements were analyzed.

In experiment [8] the target is TRPA1 (Homo sapiens, UniProt O75762). As to conditions: read-out: EC50 as agonist of TRPA1; cited from earlier work.
TRPA1, sequence (O75762 whole entry, species assumed): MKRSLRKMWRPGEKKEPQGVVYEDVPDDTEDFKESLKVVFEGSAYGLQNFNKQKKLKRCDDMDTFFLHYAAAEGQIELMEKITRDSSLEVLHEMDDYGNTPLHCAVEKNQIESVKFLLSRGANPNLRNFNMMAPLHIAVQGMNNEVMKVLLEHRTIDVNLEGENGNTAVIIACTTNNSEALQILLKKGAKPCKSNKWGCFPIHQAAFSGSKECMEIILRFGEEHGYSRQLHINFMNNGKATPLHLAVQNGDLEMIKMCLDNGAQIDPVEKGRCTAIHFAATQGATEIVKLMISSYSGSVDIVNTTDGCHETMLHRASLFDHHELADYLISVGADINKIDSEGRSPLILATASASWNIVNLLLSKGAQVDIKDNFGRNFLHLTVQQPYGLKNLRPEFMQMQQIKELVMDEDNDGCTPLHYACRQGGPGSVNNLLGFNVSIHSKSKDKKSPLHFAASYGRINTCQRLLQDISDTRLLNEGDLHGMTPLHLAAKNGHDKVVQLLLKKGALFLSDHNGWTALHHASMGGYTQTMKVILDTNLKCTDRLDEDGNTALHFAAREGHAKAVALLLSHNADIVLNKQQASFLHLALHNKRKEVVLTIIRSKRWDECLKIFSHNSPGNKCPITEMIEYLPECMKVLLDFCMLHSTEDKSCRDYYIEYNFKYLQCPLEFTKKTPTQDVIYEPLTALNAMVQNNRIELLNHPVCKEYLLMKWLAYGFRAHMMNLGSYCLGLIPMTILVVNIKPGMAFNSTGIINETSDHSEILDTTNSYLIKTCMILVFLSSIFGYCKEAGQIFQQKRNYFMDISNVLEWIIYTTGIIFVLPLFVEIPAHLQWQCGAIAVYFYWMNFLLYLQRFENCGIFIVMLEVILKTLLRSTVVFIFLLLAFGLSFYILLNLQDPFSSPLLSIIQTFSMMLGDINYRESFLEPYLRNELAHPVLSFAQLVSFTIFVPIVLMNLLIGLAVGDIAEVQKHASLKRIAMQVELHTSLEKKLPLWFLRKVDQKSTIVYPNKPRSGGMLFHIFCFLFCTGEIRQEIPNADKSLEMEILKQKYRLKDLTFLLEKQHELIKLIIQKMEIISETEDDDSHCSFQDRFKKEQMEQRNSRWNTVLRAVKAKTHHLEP
The test system of experiment [9] is mice. The experiment can be described thus: Aversive drinking test. Type of experiment: in vivo, mouse. The note with it: PS 750 μM in drinking water. As for the experimental part: To evaluate the contribution of TRPM3 to trigeminal nociception, we used an aversive drinking test (Caterina et al., 2000). Over a period of 3 days, mice were allowed to drink from a bottle of water for only 1 hour/day. On the fourth day, this solution was supplemented with PS (750 μM). In Trpm3^+/+ mice, this evoked a modest but significant aversion, as evidenced by a 30% reduction in consumed water volume (FIG. 4C).
as §1

For experiment [10], the target named is T1, TRPM3. Nature of the experiment: Whole-cell current measurements in TRPM3-expressing HEK293T cells. Also noted: expressed in transfected cells. The note with it: PS 5 μM. It is filed as cell-based, murine. As for the experimental part:
as §4

Experiment [11] concerns the target T3, TRPM3α2. Nature of the experiment: 96 well plate Fluo-4 assay of temperature-dependent Ca2+ responses, HEK293T stably expressing TRPM3. It is filed as cell-based, murine. As to conditions: PS at 10 μM. The method, then:
To determine an average temperature-response relation for TRPM3, we also used a fluo-4-based assay using 96 well plates and the 7500 Real-Time PCR system (Applied Biosystems). HEK293T cells stably expressing murine TRPM3α2 (FIG. 9B) or non transfected HEK293T cells were loaded with Fluo-4-AM for 30 min, trypsinized, centrifuged, resuspended in a solution containing (in mM) 150 NaCl, 6 KCl, 2 MgCl2, 2 CaCl2, and 10 HEPES (pH 7.4 with NaOH) and transferred to a 96-well plate (at 15000-25000 cells/well; 50 μl). When indicated, PS (10 μM) was added to the wells. Fluo-4 fluorescence was measured while the well temperature was raised from 16 to 43° C. in 3-degrees steps. Background-subtracted fluorescence signals were used to calculate temperature-induced changes in fluorescence as ΔF/F16 °C, where F16 °C is the background corrected fluorescence at 16° C. and ΔF=F−F16 °C. The neurosteroids pregnenolone sulphate, progesterone and the TRPV1 activator capsaicin (all Sigma) were applied at indicated concentrations from a respectively 100 mM, 250 mM and 10 mM stock solution in DMSO.

For experiment [12], the target named is T1, TRPM3. The experiment can be described thus: Intracellular Ca2+ increase by low doses of PS at room temperature and 37° C., HEK293T stably expressing TRPM3. Also noted: expressed in transfected cells. As to conditions: 100 nM PS. It is filed as cell-based, murine. The method, then:
as §2, §5

The target in experiment [13] is T1, TRPM3. Nature of the experiment: Ca2+ imaging of TRPM3-mediated responses in the presence of AMG 9810. It is filed as cell-based. The method, then:
as §3

Experiment [14] addresses T2, TRPV1. Nature of the experiment: Ca2+ imaging of TRPV1-mediated responses in the presence of AMG 9810. Type of experiment: cell-based.
[15] abbreviates: Trpm3+/+ mice, PS 2.5 and 5 nmol/paw, progesterone 25 nmol/paw.
[16] abbreviates: Trpv1−/−, Trpa1−/− and combined Trpv1−/−/Trpa1−/− mice.

T3 sequence (J9SQF3 1-1709 isoform J9SQF3-12): as the sequence (J9SQF3 1-1709 isoform J9SQF3-12) above

As to `CC(=O)[C@H]1CC[C@H]2[C@@H]3CCC4=CC(=O)CC[C@]4(C)[C@H]3CC[C@]12C` [progesterone], the “nocifensive behavior (paw licking and lifting)” value (“nocifensive behavior” below) in experiment [1] (setting [15]) and in [1] (Trpm3−/− mice) was “did not evoke measurable nociceptive responses” throughout. The TRPM3 agonist activity result in experiment [2] is “no TRPM3 agonist activity”.
As for `C=CCN=C=S` [MO, mustard oil], the “fraction of sensitive TG neurons in Trpm3−/− preparations versus Trpm3+/+” value in experiment [3] is “not changed”. Also, in [4], the “fraction of sensitive DRG neurons in Trpm3−/− preparations versus Trpm3+/+” value is reported as “not changed”.
With `COc1cc(CNC(=O)CCCC/C=C/C(C)C)ccc1O` [capsaicin], the “nocifensive behavior” value in experiment [1] (Trpm3−/− mice) is reported as “evoked the normal nocifensive behavior”. Besides, the “TG neurons responding to capsaicin” value in [5] (Trpm3+/+ mice, 13 of 23) amounted to 57%; in experiment [5] (Trpm3−/− mice, 11 of 21) it was 53%. Also, the “intracellular Ca2+ response of TRPV1-expressing cells” value in experiment [6] is given as “responded”. Besides, the “intracellular Ca2+ response of TRPM3-expressing cells” value in [7] is on record as “insensitive”. The “fraction of sensitive TG neurons in Trpm3−/− preparations versus Trpm3+/+” value in experiment [3] was “not changed”. In addition, in experiment [4], the “fraction of sensitive DRG neurons in Trpm3−/− preparations versus Trpm3+/+” value was “not changed”.
In the case of `COC(=O)C1=C(C)NC(C)=C(C(=O)OC)C1c1ccccc1[N+](=O)[O-]` [nifedipine], the concentration for a half-maximal effect (EC50) (commonly the concentration at which the effect is half-maximal) in [8] was 0.4 µM; in experiment [2] (read-out: EC50 as agonist of TRPM3), 30 µM.
As to `CC(=O)C1CCC2C3CC=C4CC(OS(=O)(=O)O)CCC4(C)C3CCC12C` (centres unmarked) [PS, pregnenolone sulphate], the “nocifensive behavior” value in [1] (setting [15]) is on record as “evoked strong nocifensive behavior”; in experiment [1] (Trpm3−/− mice), “completely lacked this nocifensive response”; in [1] (combined Trpv1−/−/Trpa1−/− knockout mice), “elicited a nocifensive response that was similar to that observed in Trpm3^+/+ mice”. The “TG neurons with inward currents of more than 10 pA” value in [5] (Trpm3+/+ mice, 15 of 23) is listed as 65%; in experiment [5] (Trpm3−/− mice, 0 of 21), “never observed”; in experiment [5] (Trpv1−/−/Trpa1−/− mice, 9 of 17), 53%. The “reduction in consumed water volume” value in experiment [9] (Trpm3+/+ mice) turned out to be 30%. In addition, the “aversive response in drinking test” value in [9] (Trpm3−/− mice) was “no aversive response”. In addition, the “current response to a low dose of PS at higher temperatures” value in experiment [10] is recorded as “strongly potentiated”. Besides, in experiment [11], the “shift of the thermal response profile to lower temperatures” value worked out at 6.1±0.4 degrees. For the same compound, the “Ca2+ response to PS” value is reported as “evoked robust responses” in [12] (37° C.) and “subthreshold” in experiment [12] (room temperature). Moreover, the “intracellular Ca2+ response of TRPM3-expressing cells” value in [7] is reported as “robust responses”. Also, in experiment [3] (Trpm3+/+ mice, n=273, PS 10 μM), the “TG neurons with robust and reversible calcium signals” value is 57%. The “fraction of sensitive TG neurons in Trpm3−/− preparations versus Trpm3+/+” value in [3] was “drastically decreased”. Further, in experiment [3] (setting [16]), the “responses in TG neurons from TRPV1/TRPA1 knockout mice” value is recorded as “conserved”. Further, the “DRG neurons with robust and reversible calcium signals” value in [4] (Trpm3+/+ mice, n=303, PS 10 μM) came out at 58%. In experiment [4], the “fraction of sensitive DRG neurons in Trpm3−/− preparations versus Trpm3+/+” value is recorded as “drastically decreased”. The “responses in DRG neurons from TRPV1/TRPA1 knockout mice” value in [4] (setting [16]) is given as “conserved”.
Turning to `CC(C)(C)c1ccc(/C=C/C(=O)Nc2ccc3c(c2)OCCO3)cc1` [AMG 9810, (E)-3-(4-t-butylphenyl)-N-(2,3-dihydrobenzo[b][1,4]dioxin-6-yl)acrylamide], the “TRPM3-mediated heat (42° C.) and PS (40 μM) responses” value in experiment [13] is “unaltered”. The “TRPV1-mediated heat (42° C.) and capsaicin (2 μM) responses” value in experiment [14] was “full inhibition”. The “effect on percentage of heat responders in DRG neurons” value in [4] (AMG 9810 5 μM) is recorded as “significantly reduced”. Besides, the “effect on capsaicin responses in DRG neurons” value in experiment [4] (AMG 9810 5 μM, Trpm3+/+ and Trpm3−/− DRG neurons) is given as “completely eliminated”. Moreover, the “heat-responsive cells remaining after treatment” value in [4] (Trpm3−/− neurons, AMG 9810 5 μM) is “substantial fraction of heat-responsive cells”.
